Data taken from patent publication US20260327239A1, “COMPOUNDS FOR COVALENT INHIBITION OF SHP2” (Purdue Research Foundation, priority 2023, published 2026).
Entries after “also recorded” stand apart in the source; their conditions may differ.

Columns and labels:
SHP2 [1] = molecular target: T1, SHP2 (Homo sapiens, UniProt Q06124); assay: Covalent adduct formation on SHP2 by intact protein LC-MS; assay type: binding; conditions: 10 μM SHP2, 60 minutes; for Found Ligand Adduct (mass shift): intact protein LC-MS; for % SHP2 Reacted (overall adduct formation): PVSN at 20 μM, compound 37 at 10 μM
T1 construct: 4× solution of SHP2 (residues 224-528)
T1 sequence (Q06124 224-528): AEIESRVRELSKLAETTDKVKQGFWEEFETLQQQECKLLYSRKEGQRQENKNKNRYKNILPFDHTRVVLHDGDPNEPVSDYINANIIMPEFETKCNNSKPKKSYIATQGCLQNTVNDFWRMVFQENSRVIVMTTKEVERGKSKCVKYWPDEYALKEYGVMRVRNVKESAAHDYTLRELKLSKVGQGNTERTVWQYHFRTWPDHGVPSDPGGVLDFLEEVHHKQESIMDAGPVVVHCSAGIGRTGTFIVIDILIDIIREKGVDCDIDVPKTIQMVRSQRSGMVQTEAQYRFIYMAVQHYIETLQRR
Experimental: To validate covalent modification of SHP2 by the active compounds, adduct formation on SHP2 was measured by intact protein liquid chromatography-mass spectrometry (LC-MS). With intact protein LC-MS, multiply charged states of the protein species can be deconvoluted to achieve the total mass(es). Compounds were incubated with 10 μM SHP2 for 60 minutes before being quenched with acetonitrile for LC-MS analysis by electrospray ionization (ESI) in positive mode. […] (33), and (42) (FIGS. 3A and 3B).
To unfold protein and quench protein-ligand reactivity, 10 μL of treated or untreated 10 μM SHP2 was diluted in 40 μL of 80% (v/v) formic acid initially, followed by 150 μL of LC-MS buffer (50/50 water/acetonitrile with 0.1% formic acid). 20-25 pmol per sample was analyzed by LC/MS (Agilent 1260 Infinity II with a ZORBAX Rapid Resolution High Definition 300 Å Stable Bond C3, 2.1×100 mm, 1.8 μm column) attached to an Agilent 6129 quadrupole mass spectrometer in positive ion mode. The column was held at 45° C. Mobile solution A was 0.1% formic acid in water, and mobile phase B was 0.1% formic acid in acetonitrile. The gradient used was hold at 10% B for 5 min, increase linearly to 80% B for 15 min, and then hold at 80% B for 5 min. The mass data were collected at a range of 600-1500 m/z. Raw data were processed using MestReNova. For all samples, the deconvoluted mass was calculated by taking the m/z range of 730-1100 Da, and deconvoluted mass range from 36500-37200 Da. An abundance threshold of 10% and tolerance of 30 ppm was set for deconvolution. Unreacted SHP2's total deconvoluted mass was 36602±10 Da; for each deconvolution, the highest deconvoluted mass intensity was utilized as the mass pivot point to determine and identify reacted SHP2 adducts. To calculate the percent SHP2 reacted, the relative abundance intensity of reacted SHP2 was divided by the total relative abundance intensities of unreacted and reacted SHP2.

SHP2 (residues 224-528) = molecular target: T2, SHP2 (residues 224-528) (Homo sapiens, UniProt Q06124); assay: Kinetic characterization of SHP2 inactivation (pNPP cleavage progress curves, kobs, kinact/KI); assay type: biochemical; conditions: for kinact/KI: pH 7, role: inhibitor, read-out: kinact/KI (converted); for kinact/KI / KI (inactivation) / kinact: substrate pNPP 3 mM, 100 nM SHP2, pH 7.0, 25° C; for fold increase in efficacy compared to PVSN: kinact/KI relative to PVSN
T2 construct: 4× solution of SHP2 (residues 224-528)
T2 sequence (Q06124 224-528): T1 sequence (Q06124 224-528)
From the text: Covalent inhibitors work by forming a covalent bond with a reactive functional group in the target enzyme. Consequently, the kinetics for enzyme inactivation by a covalent inhibitor is not an equilibrium process as with reversible inhibition. The potency of a reversible inhibitor can be measured by its IC50 value. Unlike reversible inhibitors, where inhibition is only concentration-dependent, covalent inhibitors show both time- and concentration-dependent target inhibition (a covalent bond formation is a time-dependent event). If sufficient time is available, covalent inhibitors can completely neutralize the target, rather than go to equilibrium. As a result, the potency and selectivity of a covalent inhibitor cannot be determined by IC50 values; instead, the rate of inactivation of the target (kinact) and the inhibition constant (KI) were determined. The bimolecular rate constant (kinact/KI), was chosen to rank the potency of covalent inhibitors (Ruddraraju et al., 2017, Molecular Biosystems 13(7), 1257-1279).
PTPs catalyze the dephosphorylation of tyrosine-phosphorylated protein substrates through a conserved mechanism that relies on a catalytic cysteine residue (Zhang, Z.-Y et al., 2003, Prog. Nucleic Acid Research Molecular Biology, 73, 171-220). This provides a mechanistic rationale for the assessment of electrophilic Michael acceptors, such as those synthesized in the present disclosure as potential covalent inhibitors of the SHP2. The enzymatic cleavage of para-nitrophenyl phosphate by SHP2 was measured over time in the presence of 100 μM inhibitor or DMSO, to determine the observed first-order rate constant (kobs). Based on kobs values, compounds were further evaluated in a dose-dependent manner to determine the second-order rate constant (kinact/KI) indicating the overall efficacy of the compounds, which was used to assess the structure-activity relationship (SAR) for the analogs of interest and design additional analogs (see Table 1). […] It has been known that modifications to the electronegativity of substituents proximal to electrophilic centers alter the reactivity of the electrophile.
The efficacy of covalent inhibitors can be broken down into the initial reversible binding of the compounds (KI), and the rate of covalent bond formation and enzyme inactivation (kinact). These two constants can be used individually, or as a ratio to determine the overall efficacy of the inhibitor's efficacy. To investigate the contribution to reversible binding compound (34) was evaluated, which lacks the carbonyl of the Michael acceptor to prevent the formation of a covalent adduct.
Inhibitors were evaluated for their ability to inhibit the reaction catalyzed by SHP2 using para-nitrophenyl phosphate (pNPP) as a substrate at pH 7 and 25° C. A 2× solution of inhibitor was diluted into DMG buffer (50 mM 3,3-dimethylglutarate pH 7.0, 1 mM EDTA, ionic strength adjusted to 150 mM using NaCl) was added to a clear flat-bottom 96-well plate (Corning Costar Assay Plate #9017), and serially diluted 1.5-fold, resulting in 100 μL volumes of varying inhibitor concentrations. To this was added a 4× solution of pNPP (12 mM) in DMG buffer. The reaction was initialized by the addition of a 4× solution of SHP2 (residues 224-528), resulting in a final solution of: inhibitor (100-0 μM), pNPP (3 mM), and SHP2 (100 nM). The plate was then monitored for a change in absorbance ab […] using a CLARIOstar^Plus plate reader (BMG Labetch) over the course of an hour. The resulting progress curves for each inhibitor were imported into Graphpad Prism 9 (GraphPad Software, San Diego, CA (USA)), and a baseline correction analysis was completed for fitting purposes. Each curve was fit to the equation Y=V0×(1−e^−kobs*t)/kobs.^[17.22] The kobs values were then plotted against inhibitor concentrations. If the resulting graph was linear, the kinact/KI value was determined by the slope of that line and the 95% confidence interval (95% CI). […]

SHP2 [2] = molecular target: T1, SHP2; assay: Active site protection by vanadate (jump-dilution assay); assay type: biochemical; conditions: role: inhibitor, 10 min, diluted 100-fold into 10 mM pNPP
Experimental: To further support a covalent mechanism of action and engagement of the SHP2 active site, a jump-dilution assay was employed both in the presence and absence of the known reversible PTP active site competitive inhibitor vanadate (VO4) (Seiner, D. R. et al., Chem. Res. Toxicol. 2007, 20, 1315-1320) In this experiment, SHP2 was co-incubated with 100 μM compound (10) and 500 μM vanadate or DMSO for 10 minutes. The enzyme-inhibitor complex was then rapidly diluted 100-fold into a buffered solution containing 10 mM pNPP, and the absorbance at 405 nm was immediately monitored over time to determine the remaining enzymatic activity.
A solution containing 500 μM Vanadate or DMSO, 4 μM SHP2, and 100 μM (10) or DMSO in DMG buffer (with no EDTA) was added to a clear flat-bottom 96-well plate (Corning Costar Assay Plate #9017). This was allowed to incubate for 10 minutes at 25° C. before transferring 3 μL to a new clear flat-bottom 96-well plate (Corning Costar Assay Plate #9017). To each well was added 297 μL of 10.1 mM pNPP in DMG buffer (with EDTA) and the plate Plates were then read for absorbance at 405 nm using a CLARIOstar^Plus plate reader (BMG Labetch). Data was imported into Graphpad Prism 9 (GraphPad Software, San Diego, CA (US)), and a baseline correction analysis was completed for fitting purposes.

Structure (SMILES) | Found Ligand Adduct (mass shift) (SHP2 [1]) | % SHP2 Reacted (overall adduct formation) (SHP2 [1]) | kinact/KI (SHP2 (residues 224-528)) | KI (inactivation) (SHP2 (residues 224-528); role: inhibitor) | kinact (SHP2 (residues 224-528); role: inhibitor) | fold increase in efficacy over compound 11 (SHP2 (residues 224-528); role: inhibitor, kinact/KI relative to 11) | fold increase in efficacy compared to PVSN (SHP2 (residues 224-528); role: inhibitor) | residual SHP2 activity after jump-dilution (SHP2 [2]; 100 μM compound (10) alone) | residual SHP2 activity after jump-dilution with vanadate (SHP2 [2]; 100 μM compound (10) with 500 μM vanadate (competitive inhibitor)) | SHP2 activity recovery after jump-dilution, vanadate alone (SHP2 [2]; 500 μM vanadate, compared to DMSO control)
C=C1C(=O)[C@@]2(C(=O)N3CCN(c4ccc(Br)cc4)CC3)CC(=O)C[C@@H]1C2 [Compound 33] | 412 Da | 30% | 367 M⁻¹ s⁻¹ | 69.7 µM | 0.0219 s⁻¹ | – | – | – | – | –
C=C1C(=O)[C@@]2(C(=O)N3CCN(c4ccc(C(F)(F)F)cc4)CC3)CC(=O)C[C@@H]1C2 [Compound 42] | 410 Da | 43% | 417 M⁻¹ s⁻¹ | 47.8 µM | 0.0199 s⁻¹ | 29 fold | 119 fold | – | – | –
C=CS(=O)(=O)Oc1ccccc1 [PVSN, phenyl vinyl sulfonate, reference compound] | – | 21% | 3.52 M⁻¹ s⁻¹ | – | – | – | – | – | – | –
C=C1C(=O)[C@@]2(C(=O)OC)CC(=O)C[C@@H]1C2 [Compound 10] | 206 Da | 34% | 20.5 M⁻¹ s⁻¹ | – | – | – | approximately 6 fold | negligible residual enzymatic activity; also recorded: Little residual activity was detected | substantial residual activity; also recorded: protected from inactivation | –
[O]=[V]([O-])([O-])[O-] [vanadate, reference compound] | – | – | – | – | – | – | – | – | – | fully recovered activity
